According to patent US20240018136A1, “CDK Inhibitors And Their Use As Pharmaceuticals” (Prelude Therapeutics, Incorporated, priority 2022, published 2024):

Tests used:
[1] = biological target: CDK2/Cyclin E2 (Homo sapiens, UniProt P24941); test: CDK2/CyclinE2 enzymatic activity assay (TR-FRET); type: biochemical; settings: ATP 1 mM final, read-out: CDK2_E1 IC50
Summary of the method: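 Insect-cell-expressed CDK2/Cyclin E2 (1 nM), ULight-4E-BP1 (50 nM) and ATP (1 mM) in HEPES pH 7.4 buffer were preincubated 20 min at RT with compound (9-dose, 3-fold), started with 10 mM MgCl2 and run 45 min at 37 °C. EDTA/Eu-anti-P-4E-BP1 stop, 60 min TR-FRET detection; IC50 from 4-parameter Hill fit.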

[2] = tested on: OVCAR3 p-RB; test: pRB ICW assay in OVCAR3 cells; type: cell-based; settings: Homo sapiens, OVCAR-3, incubated with compound for 2 hours
Summary of the method: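 OVCAR3 cells were treated 2 h at 37 °C with a 9-point half-log compound series, in duplicate, with 10 μM reference compound as maximum inhibition. Cells were then fixed, permeabilized and stained with anti-phospho-RB plus DRAQ5. In-cell western intensities were read at 700/800 nm on Odyssey CLx.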

[3] = biological target: T1, CDK4/Cyclin D1 (Homo sapiens, UniProt P11802); test: CDK4/CyclinD1 enzymatic activity assay (TR-FRET); type: biochemical; settings: ATP 2 mM final, read-out: CDK4_D1 IC50
T1 construct: purchased ProQinase; host or cells: insect cell
Summary of the method: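 Insect-cell-expressed CDK4/Cyclin D1 (1 nM) phosphorylated ULight-4E-BP1 peptide (100 nM) at 2 mM ATP in HEPES pH 7.4 buffer after 20 min compound preincubation. Reaction started with 10 mM MgCl2, ran 45 min at 37 °C, then EDTA quench and Eu-anti-phospho-4E-BP1 TR-FRET detection. IC50 from 9-point 3-fold dilutions, 4-parameter fit.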

T1 sequence (P11802 whole entry): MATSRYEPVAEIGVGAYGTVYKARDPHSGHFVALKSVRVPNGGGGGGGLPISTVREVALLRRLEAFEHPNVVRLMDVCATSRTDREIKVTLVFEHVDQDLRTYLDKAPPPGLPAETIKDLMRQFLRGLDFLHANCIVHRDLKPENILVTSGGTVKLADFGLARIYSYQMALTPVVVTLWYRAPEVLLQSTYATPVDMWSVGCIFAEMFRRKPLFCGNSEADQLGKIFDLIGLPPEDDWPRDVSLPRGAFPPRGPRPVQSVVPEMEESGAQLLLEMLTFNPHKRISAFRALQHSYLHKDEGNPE
T1 sequence (P24385 whole entry partner): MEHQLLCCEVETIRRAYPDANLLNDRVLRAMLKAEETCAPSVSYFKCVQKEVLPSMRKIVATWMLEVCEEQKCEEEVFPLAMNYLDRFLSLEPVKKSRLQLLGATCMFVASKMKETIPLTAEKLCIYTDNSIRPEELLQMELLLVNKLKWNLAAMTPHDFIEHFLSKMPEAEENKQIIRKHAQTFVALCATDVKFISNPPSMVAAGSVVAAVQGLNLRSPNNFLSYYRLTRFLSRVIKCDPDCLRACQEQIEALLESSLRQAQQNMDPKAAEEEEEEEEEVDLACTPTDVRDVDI

| SMILES | IC50 [1] [nM] | IC50 [2] [nM] | IC50 [3] [nM] |
| --- | --- | --- | --- |
| CN(C)Cc1ncc(-c2nc(NC3CCN(S(C)(=O)=O)CC3)ncc2C(F)(F)F)s1 [Example 65, 4-[2-[(Dimethylamino)methyl]-1,3-thiazol-5-yl]-N-(1-methylsulfonylpiperidin-4-yl)-5-(trifluoromethyl)pyrimidin-2-amine] | ≤ 100 | > 1000 | 100 to 1000 |
| Cn1cc(S(=O)(=O)N2CCC(Nc3ncc(C(F)(F)F)c(-c4cnc(CC(C)(C)O)s4)n3)CC2)cn1 [Example 67, 2-Methyl-1-(5-(2-((1-((1-methyl-1H-pyrazol-4-yl)sulfonyl)piperidin-4-yl)amino)-5-(trifluoromethyl)pyrimidin-4-yl)thiazol-2-yl)propan-2-ol] | ≤ 100 | ≤ 100 | ≤ 100 |
| CC(C)(O)Cc1ncc(-c2nc(NC3CCN(S(C)(=O)=O)CC3)ncc2C(F)(F)F)s1 [Example 68, 2-methyl-1-(5-(2-((1-(methylsulfonyl)piperidin-4-yl)amino)-5-(trifluoromethyl)pyrimidin-4-yl)thiazol-2-yl) propan-2-ol] | ≤ 100 | ≤ 100 | ≤ 100 |
| CC(C)(O)Cc1ncc(-c2nc(N[C@H]3CCN(S(C)(=O)=O)C[C@H]3F)ncc2C(F)(F)F)s1 [Example 69, 1-(5-(2-(((3R,4S)-3-fluoro-1-(methylsulfonyl)piperidin-4-yl)amino)-5-(trifluoromethyl)pyrimidin-4-yl)thiazol-2-yl)-2-methylpropan-2-ol] | ≤ 100 | ≤ 100 | ≤ 100 |
| Cn1cnc(S(=O)(=O)N2CCC(Nc3ncc(C(F)(F)F)c(-c4cnc(CC(C)(C)O)s4)n3)CC2)c1 [Example 70, 2-methyl-1-(5-(2-((1-((1-methyl-1H-imidazol-4-yl)sulfonyl)piperidin-4-yl)amino)-5-(trifluoromethyl)pyrimidin-4-yl)thiazol-2-yl)propan-2-ol] | ≤ 100 | ≤ 100 | ≤ 100 |
| C[C@@H]1CN(S(=O)(=O)c2cnn(C)c2)CC[C@@H]1Nc1ncc(C(F)(F)F)c(-c2cnc(CC(C)(C)O)s2)n1 [Example 71, 2-methyl-1-(5-(2-(((3R,4S)-3-methyl-1-((1-methyl-1H-pyrazol-4-yl)sulfonyl)piperidin-4-yl)amino)-5-(trifluoromethyl)pyrimidin-4-yl)thiazol-2-yl)propan-2-ol] | ≤ 100 | 100 to 1000 | 100 to 1000 |
| C[C@@H]1CN(S(=O)(=O)c2cn(C)cn2)CC[C@@H]1Nc1ncc(C(F)(F)F)c(-c2cnc(CC(C)(C)O)s2)n1 [Example 72, 2-methyl-1-(5-(2-(((3R,4S)-3-methyl-1-((1-methyl-1H-imidazol-4-yl)sulfonyl)piperidin-4-yl)amino)-5-(trifluoromethyl)pyrimidin-4-yl)thiazol-2-yl)propan-2-ol] | ≤ 100 | 100 to 1000 | 100 to 1000 |
| Cn1cc(S(=O)(=O)N2CC[C@H](Nc3ncc(C(F)(F)F)c(-c4cnc(CC(C)(C)O)s4)n3)[C@H](F)C2)cn1 [Example 73, 1-(5-(2-(((3R,4S)-3-fluoro-1-((1-methyl-1H-pyrazol-4-yl)sulfonyl)piperidin-4-yl)amino)-5-(trifluoromethyl)pyrimidin-4-yl)thiazol-2-yl)-2-methylpropan-2-ol] | ≤ 100 | ≤ 100 | ≤ 100 |
| Cn1cnc(S(=O)(=O)N2CC[C@H](Nc3ncc(C(F)(F)F)c(-c4cnc(CC(C)(C)O)s4)n3)[C@H](F)C2)c1 [Example 74, 1-(5-(2-(((3R,4S)-3-fluoro-1-((1-methyl-1H-imidazol-4-yl)sulfonyl)piperidin-4-yl)amino)-5-(trifluoromethyl)pyrimidin-4-yl)thiazol-2-yl)-2-methylpropan-2-ol] | ≤ 100 | ≤ 100 | ≤ 100 |
| Cn1cnc(S(=O)(=O)N2CCC(Nc3ncc(C(F)(F)F)c(-c4cnc(C(O)C(C)(C)O)s4)n3)CC2)c1 (stereo not drawn) [Example 75, 2-methyl-1-(5-(2-((1-((1-methyl-1H-imidazol-4-yl)sulfonyl)piperidin-4-yl)amino)-5-(trifluoromethyl)pyrimidin-4-yl)thiazol-2-yl)propane-1,2-diol] | ≤ 100 | 100 to 1000 | ≤ 100 |
| CC(C)(O)Cc1ncc(-c2nc(NC3CCN(S(=O)(=O)c4cnc5cccnn45)CC3)ncc2C(F)(F)F)s1 [Example 76, 1-(5-(2-((1-(imidazo[1,2-b]pyridazin-3-ylsulfonyl)piperidin-4-yl)amino)-5-(trifluoromethyl)pyrimidin-4-yl)thiazol-2-yl)-2-methylpropan-2-ol] | ≤ 100 | ≤ 100 | 100 to 1000 |
| CC(C)(O)Cc1ncc(-c2nc(NC3CCN(S(=O)(=O)c4cnn(CC#N)c4)CC3)ncc2C(F)(F)F)s1 [Example 77] | ≤ 100 | ≤ 100 | ≤ 100 |
| CC(C)(O)Cc1ncc(-c2nc(NC3CCN(S(=O)(=O)CCCN4CCC(C#N)CC4)CC3)ncc2C(F)(F)F)s1 [Example 78, 1-(3-((4-((4-(2-(2-hydroxy-2-methylpropyl)thiazol-5-yl)-5-(trifluoromethyl)pyrimidin-2-yl)amino)piperidin-1-yl)sulfonyl)propyl)piperidine-4-carbonitrile] | ≤ 100 | 100 to 1000 | ≤ 100 |
| CC(C)(O)Cc1ncc(-c2nc(NC3CCN(S(=O)(=O)CCCN4CCOCC4)CC3)ncc2C(F)(F)F)s1 [Example 79, 2-methyl-1-(5-(2-((1-((3-morpholinopropyl)sulfonyl)piperidin-4-yl)amino)-5-(trifluoromethyl)pyrimidin-4-yl)thiazol-2-yl)propan-2-ol] | ≤ 100 | 100 to 1000 | ≤ 100 |
| CN1CCN(CCCS(=O)(=O)N2CCC(Nc3ncc(C(F)(F)F)c(-c4cnc(CC(C)(C)O)s4)n3)CC2)CC1 [Example 80, 2-methyl-1-(5-(2-((1-((3-(4-methylpiperazin-1-yl)propyl)sulfonyl)piperidin-4-yl)amino)-5-(trifluoromethyl)pyrimidin-4-yl)thiazol-2-yl)propan-2-ol] | ≤ 100 | 100 to 1000 | ≤ 100 |
| CC(O)c1ncc(-c2nc(NC3CCN(S(C)(=O)=O)CC3)ncc2C(F)(F)F)s1 (stereo not drawn) [Example 81, 1-(5-(2-((1-(methylsulfonyl)piperidin-4-yl)amino)-5-(trifluoromethyl)pyrimidin-4-yl)thiazol-2-yl)ethan-1-ol] | ≤ 100 | 100 to 1000 | ≤ 100 |
| CC(O)c1ncc(-c2nc(NC3CCN(S(=O)(=O)c4cnn(C)c4)CC3)ncc2C(F)(F)F)s1 (stereo not drawn) [Example 82, 1-(5-(2-((1-((1-methyl-1H-pyrazol-4-yl)sulfonyl)piperidin-4-yl)amino)-5-(trifluoromethyl)pyrimidin-4-yl)thiazol-2-yl)ethan-1-ol] | ≤ 100 | ≤ 100 | ≤ 100 |
| CC(O)c1ncc(-c2nc(NC3CCN(S(=O)(=O)c4cn(C)cn4)CC3)ncc2C(F)(F)F)s1 (stereo not drawn) [Example 83, 1-(5-(2-((1-((1-methyl-1H-imidazol-4-yl)sulfonyl)piperidin-4-yl)amino)-5-(trifluoromethyl)pyrimidin-4-yl)thiazol-2-yl)ethan-1-ol] | ≤ 100 | ≤ 100 | ≤ 100 |
| Cn1cc(S(=O)(=O)N2CCC(Nc3ncc(C(F)(F)F)c(-c4cnc(C(O)C5CC5)s4)n3)CC2)cn1 (stereo not drawn) [Example 84, cyclopropyl(5-(2-((1-((1-methyl-1H-pyrazol-4-yl)sulfonyl)piperidin-4-yl)amino)-5-(trifluoromethyl)pyrimidin-4-yl)thiazol-2-yl)methanol] | ≤ 100 | ≤ 100 | ≤ 100 |
| CC(O)c1ncc(-c2nc(NC3CCN(S(=O)(=O)c4ccsc4)CC3)ncc2C(F)(F)F)s1 (stereo not drawn) [Example 85, 1-(5-(2-((1-(thiophen-3-ylsulfonyl)piperidin-4-yl)amino)-5-(trifluoromethyl)pyrimidin-4-yl)thiazol-2-yl)ethan-1-ol] | ≤ 100 | ≤ 100 | ≤ 100 |
| COCc1nn(C)cc1S(=O)(=O)N1CCC(Nc2ncc(C(F)(F)F)c(-c3cnc(C(C)O)s3)n2)CC1 (stereo not drawn) [Example 86, 1-(5-(2-((1-((3-(methoxymethyl)-1-methyl-1H-pyrazol-4-yl)sulfonyl)piperidin-4-yl)amino)-5-(trifluoromethyl)pyrimidin-4-yl)thiazol-2-yl)ethan-1-ol] | ≤ 100 | ≤ 100 | ≤ 100 |
| CC(O)c1ncc(-c2nc(NC3CCN(S(=O)(=O)c4cnn(CC(N)=O)c4)CC3)ncc2C(F)(F)F)s1 (stereo not drawn) [Example 87, 2-(4-((4-((4-(2-(1-hydroxyethyl)thiazol-5-yl)-5-(trifluoromethyl)pyrimidin-2-yl)amino)piperidin-1-yl)sulfonyl)-1H-pyrazol-1-yl)acetamide] | ≤ 100 | 100 to 1000 | ≤ 100 |
| CC(=O)N1CCC(S(=O)(=O)N2CCC(Nc3ncc(C(F)(F)F)c(-c4cnc(C(C)O)s4)n3)CC2)CC1 (stereo not drawn) [Example 88, 1-(4-((4-((4-(2-(1-hydroxyethyl)thiazol-5-yl)-5-(trifluoromethyl)pyrimidin-2-yl)amino)piperidin-1-yl)sulfonyl)piperidin-1-yl)ethan-1-one] | ≤ 100 | 100 to 1000 | ≤ 100 |
